Source: ChEMBL document CHEMBL1201862, “PubChem BioAssay data set” (2004)
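The compound was tested at five concentrations on cells cultured in 96-well plates, with a 48-hour exposure period. GI50 is the concentration that inhibits growth by half.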 Activity calls are given as the source filed them. No stated cut-off is given here; in the data, active = GI50 up to about 1.1 µM and inactive = higher.

How the values were obtained:
Experiment in all cases: inhibition of tumour cell growth, NCI panel, 48 h
[1] = tested on: SR
[2] = tested on: LOX IMVI
[3] = tested on: MOLT-4
[4] = tested on: IGROV-1
[5] = tested on: NCI-H226
[6] = tested on: KM12
[7] = tested on: RXF 393
[8] = tested on: MDA-N
[9] = tested on: PC-3
[10] = tested on: SK-MEL-5
[11] = tested on: NCI-H522
[12] = tested on: SK-MEL-2
[13] = tested on: SNB-19
[14] = tested on: EKVX
[15] = tested on: 786-0
[16] = tested on: ACHN
[17] = tested on: M14
[18] = tested on: MCF7
[19] = tested on: HL-60
[20] = tested on: T47D
[21] = tested on: HOP-92
[22] = tested on: RPMI-8226
[23] = tested on: COLO 205
[24] = tested on: OVCAR-3
[25] = tested on: HT-29
[26] = tested on: NCI-H23
[27] = tested on: SN12C
[28] = tested on: SF-539
[29] = tested on: K562
[30] = tested on: HCT-15
[31] = tested on: BT-549
[32] = tested on: U-251
[33] = tested on: MDA-MB-435
[34] = tested on: UO-31
[35] = tested on: HOP-62
[36] = tested on: HCC 2998
[37] = tested on: OVCAR-4
[38] = tested on: CCRF-CEM
[39] = tested on: SK-MEL-28
[40] = tested on: SF-268
[41] = tested on: CAKI-1
[42] = tested on: Malme-3M
[43] = tested on: NCI/ADR-RES
[44] = tested on: HCT-116
[45] = tested on: UACC-257
[46] = tested on: OVCAR-5
[47] = tested on: OVCAR-8
[48] = tested on: TK-10
[49] = tested on: SW-620
[50] = tested on: SF-295
[51] = tested on: NCI-H460
[52] = tested on: DU-145
[53] = tested on: UACC-62
[54] = tested on: SNB-75
[55] = tested on: SK-OV-3
[56] = tested on: Hs-578T
[57] = tested on: A498
[58] = tested on: MDA-MB-231
[59] = tested on: A549

O=C(c1ccco1)n1c2ccc(Br)cc2c2nc3ccccc3nc21
GI50 [1]: > 100 µM (inactive) | GI50 [2]: 46.3 µM (inactive) | GI50 [3]: 22 µM (inactive) | GI50 [4]: 19.4 µM (inactive) | GI50 [5]: 68.4 µM (inactive) | GI50 [6]: 26.8 µM (inactive) | GI50 [7]: 52 µM (inactive) | GI50 [8]: > 100 µM (inactive) | GI50 [9]: 50.4 µM (inactive) | GI50 [10]: > 100 µM (inactive) | GI50 [11]: 12.1 µM (inactive) | GI50 [12]: 34.1 µM (inactive) | GI50 [13]: 23.2 µM (inactive) | GI50 [14]: 34.5 µM (inactive) | GI50 [15]: 18.7 µM (inactive) | GI50 [16]: 27.4 µM (inactive) | GI50 [17]: > 100 µM (inactive) | GI50 [18]: 5.09 µM (inactive) | GI50 [19]: > 100 µM (inactive) | GI50 [20]: > 100 µM (inactive) | GI50 [21]: 30.5 µM (inactive) | GI50 [22]: 11.2 µM (inactive) | GI50 [23]: > 100 µM (inactive) | GI50 [24]: 47.5 µM (inactive) | GI50 [25]: 81.5 µM (inactive) | GI50 [26]: 23.7 µM (inactive) | GI50 [27]: > 100 µM (inactive) | GI50 [28]: > 100 µM (inactive) | GI50 [29]: 38.4 µM (inactive) | GI50 [30]: 48.2 µM | GI50 [31]: 45.4 µM (inactive) | GI50 [32]: 40.8 µM (inactive) | GI50 [33]: > 100 µM (inactive) | GI50 [34]: 27 µM (inactive) | GI50 [35]: 16.1 µM (inactive) | GI50 [36]: 61.1 µM (inactive) | GI50 [37]: 48.1 µM (inactive) | GI50 [38]: 40.8 µM (inactive) | GI50 [39]: > 100 µM (inactive) | GI50 [40]: 27 µM (inactive) | GI50 [41]: 84.9 µM (inactive) | GI50 [42]: 35 µM (inactive) | GI50 [43]: 35.6 µM (inactive) | GI50 [44]: 46.7 µM (inactive) | GI50 [45]: > 100 µM (inactive) | GI50 [46]: > 100 µM (inactive) | GI50 [47]: 35.2 µM (inactive) | GI50 [48]: 45.8 µM (inactive) | GI50 [49]: 42.6 µM (inactive) | GI50 [50]: 72.8 µM (inactive) | GI50 [51]: 28.6 µM (inactive) | GI50 [52]: 40.6 µM (inactive) | GI50 [53]: 31.6 µM (inactive) | GI50 [54]: 16.6 µM (inactive)

Cc1ccc(/N=N/C(=N\NC(=O)c2ccc(C)cc2)c2ccc(N(CCC#N)CCC#N)cc2C)cc1
GI50 [1]: 18.7 µM (inactive) | GI50 [2]: 35.7 µM (inactive) | GI50 [3]: 39.4 µM (inactive) | GI50 [4]: 13.4 µM (inactive) | GI50 [5]: 20.7 µM (inactive) | GI50 [6]: 12.2 µM (inactive) | GI50 [7]: 44.8 µM (inactive) | GI50 [8]: 29.7 µM (inactive) | GI50 [9]: 24 µM (inactive) | GI50 [10]: 4.69 µM (inactive) | GI50 [12]: 20.5 µM (inactive) | GI50 [13]: > 100 µM (inactive) | GI50 [14]: 43 µM (inactive) | GI50 [55]: 65.6 µM (inactive) | GI50 [16]: 46.7 µM (inactive) | GI50 [56]: 16.4 µM (inactive) | GI50 [17]: 30 µM (inactive) | GI50 [18]: 31 µM (inactive) | GI50 [19]: 17.4 µM (inactive) | GI50 [20]: 49.7 µM (inactive) | GI50 [21]: 51.3 µM (inactive) | GI50 [22]: 13 µM (inactive) | GI50 [23]: 48.2 µM (inactive) | GI50 [24]: 26.2 µM (inactive) | GI50 [25]: 19.4 µM (inactive) | GI50 [26]: 35.3 µM (inactive) | GI50 [57]: > 100 µM (inactive) | GI50 [28]: 13.7 µM (inactive) | GI50 [29]: 35.9 µM (inactive) | GI50 [30]: 33.5 µM | GI50 [58]: 57.9 µM (inactive) | GI50 [32]: 14.8 µM (inactive) | GI50 [33]: 21 µM (inactive) | GI50 [34]: > 100 µM (inactive) | GI50 [35]: 34.4 µM (inactive) | GI50 [59]: 34.5 µM (inactive) | GI50 [36]: 50.2 µM (inactive) | GI50 [37]: 47.1 µM (inactive) | GI50 [38]: 49.4 µM (inactive) | GI50 [39]: 10.3 µM (inactive) | GI50 [40]: 22.5 µM (inactive) | GI50 [41]: 67 µM (inactive) | GI50 [43]: 38.9 µM (inactive) | GI50 [45]: 27.9 µM (inactive) | GI50 [46]: 50.5 µM (inactive) | GI50 [47]: 17.7 µM (inactive) | GI50 [48]: 45.5 µM (inactive) | GI50 [49]: 39 µM (inactive) | GI50 [50]: 38.4 µM (inactive) | GI50 [51]: 23.8 µM (inactive) | GI50 [52]: 57.8 µM (inactive) | GI50 [53]: 22.4 µM (inactive) | GI50 [54]: 35.5 µM (inactive)
